Data reported in ChEMBL document CHEMBL1136068 (Bioorg Med Chem Lett, 2003).
The source made the active and inactive calls. No cut-off for these calls is given here.

Legend:
Androgen receptor = target: T1, Androgen receptor (Homo sapiens, UniProt P10275); assay: Antagonist activity against human Androgen receptor; assay type: functional
T1 sequence (P10275 whole entry): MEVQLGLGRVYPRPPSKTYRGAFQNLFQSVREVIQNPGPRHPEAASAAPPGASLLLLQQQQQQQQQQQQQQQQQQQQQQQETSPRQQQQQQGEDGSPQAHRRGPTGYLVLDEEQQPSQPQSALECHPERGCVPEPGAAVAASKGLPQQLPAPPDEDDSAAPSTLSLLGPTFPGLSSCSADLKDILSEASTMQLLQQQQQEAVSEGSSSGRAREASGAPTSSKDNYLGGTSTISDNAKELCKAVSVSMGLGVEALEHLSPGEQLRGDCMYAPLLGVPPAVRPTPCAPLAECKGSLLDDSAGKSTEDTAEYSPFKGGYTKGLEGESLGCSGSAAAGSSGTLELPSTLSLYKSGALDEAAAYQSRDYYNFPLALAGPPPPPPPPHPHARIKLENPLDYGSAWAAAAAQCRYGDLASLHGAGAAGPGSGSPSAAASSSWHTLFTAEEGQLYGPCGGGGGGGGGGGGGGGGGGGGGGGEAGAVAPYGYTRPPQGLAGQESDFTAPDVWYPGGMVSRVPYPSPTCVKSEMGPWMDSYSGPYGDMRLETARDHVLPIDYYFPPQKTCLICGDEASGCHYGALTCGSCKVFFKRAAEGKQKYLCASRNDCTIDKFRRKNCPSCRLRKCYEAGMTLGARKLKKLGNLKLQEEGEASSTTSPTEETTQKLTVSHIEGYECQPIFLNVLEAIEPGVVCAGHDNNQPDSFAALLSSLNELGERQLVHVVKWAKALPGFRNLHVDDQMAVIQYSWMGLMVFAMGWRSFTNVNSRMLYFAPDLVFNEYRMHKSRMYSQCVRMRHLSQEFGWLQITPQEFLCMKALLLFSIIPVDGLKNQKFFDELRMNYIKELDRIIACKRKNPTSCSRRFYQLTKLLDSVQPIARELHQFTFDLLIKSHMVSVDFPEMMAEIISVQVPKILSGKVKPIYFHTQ

Glucocorticoid receptor = target: T2, Glucocorticoid receptor (Homo sapiens, UniProt P04150); assay: Antagonist activity at glucocorticoid receptor; assay type: functional
T2 sequence (P04150 whole entry): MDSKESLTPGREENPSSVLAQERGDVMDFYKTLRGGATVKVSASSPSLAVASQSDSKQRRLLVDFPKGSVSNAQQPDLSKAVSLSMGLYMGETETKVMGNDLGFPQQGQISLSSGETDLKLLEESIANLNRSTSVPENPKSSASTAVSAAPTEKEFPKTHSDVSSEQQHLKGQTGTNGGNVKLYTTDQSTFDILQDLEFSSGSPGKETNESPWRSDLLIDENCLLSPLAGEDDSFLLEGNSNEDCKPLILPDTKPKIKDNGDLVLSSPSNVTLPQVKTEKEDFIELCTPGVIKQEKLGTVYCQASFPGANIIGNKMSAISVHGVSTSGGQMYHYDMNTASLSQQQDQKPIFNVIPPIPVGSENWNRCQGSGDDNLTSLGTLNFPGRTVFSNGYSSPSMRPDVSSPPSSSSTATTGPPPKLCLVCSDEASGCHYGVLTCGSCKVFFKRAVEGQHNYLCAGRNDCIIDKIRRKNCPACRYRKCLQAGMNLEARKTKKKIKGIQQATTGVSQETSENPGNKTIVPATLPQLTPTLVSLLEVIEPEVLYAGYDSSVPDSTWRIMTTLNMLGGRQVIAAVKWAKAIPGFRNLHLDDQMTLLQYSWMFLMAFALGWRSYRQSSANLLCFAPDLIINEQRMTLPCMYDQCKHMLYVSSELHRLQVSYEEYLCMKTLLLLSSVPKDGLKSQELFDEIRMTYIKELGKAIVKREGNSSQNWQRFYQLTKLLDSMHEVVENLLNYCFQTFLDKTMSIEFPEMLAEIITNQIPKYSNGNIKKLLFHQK

[1] = target: T3, Mineralocorticoid receptor (Homo sapiens, UniProt P08235); assay: Antagonist activity at mineralocorticoid receptor (hMR); assay type: functional
T3 sequence (P08235 whole entry): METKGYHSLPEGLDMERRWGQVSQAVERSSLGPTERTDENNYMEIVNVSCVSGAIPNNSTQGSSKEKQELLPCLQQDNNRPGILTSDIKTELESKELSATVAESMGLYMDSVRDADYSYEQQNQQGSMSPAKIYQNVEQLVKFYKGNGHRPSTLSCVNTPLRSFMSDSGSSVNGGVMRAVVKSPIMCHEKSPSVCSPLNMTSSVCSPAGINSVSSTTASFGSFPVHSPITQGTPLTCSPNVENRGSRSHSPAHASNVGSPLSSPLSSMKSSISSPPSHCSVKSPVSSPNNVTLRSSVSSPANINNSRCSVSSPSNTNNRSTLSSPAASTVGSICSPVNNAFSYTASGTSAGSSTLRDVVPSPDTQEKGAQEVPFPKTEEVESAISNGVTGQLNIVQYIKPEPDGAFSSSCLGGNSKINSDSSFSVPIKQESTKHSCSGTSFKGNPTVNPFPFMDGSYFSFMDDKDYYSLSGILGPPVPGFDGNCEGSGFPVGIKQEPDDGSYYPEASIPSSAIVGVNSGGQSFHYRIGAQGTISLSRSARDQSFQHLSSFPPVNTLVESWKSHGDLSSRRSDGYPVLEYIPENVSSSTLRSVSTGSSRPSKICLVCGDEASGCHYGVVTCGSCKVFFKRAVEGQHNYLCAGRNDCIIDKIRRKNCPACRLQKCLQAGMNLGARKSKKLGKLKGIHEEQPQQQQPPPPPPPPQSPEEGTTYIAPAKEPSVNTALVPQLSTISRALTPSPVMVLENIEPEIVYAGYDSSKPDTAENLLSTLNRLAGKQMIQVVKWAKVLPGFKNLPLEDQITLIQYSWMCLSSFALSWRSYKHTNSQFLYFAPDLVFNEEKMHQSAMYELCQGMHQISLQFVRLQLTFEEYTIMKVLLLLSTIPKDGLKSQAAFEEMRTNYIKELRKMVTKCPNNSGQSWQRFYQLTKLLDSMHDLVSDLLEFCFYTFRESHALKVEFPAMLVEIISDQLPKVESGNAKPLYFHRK

[2] = target: T4, Mineralocorticoid receptor (Homo sapiens) (UniProt P08235); assay: Antagonist efficacy at mineralocorticoid receptor (hMR); assay type: functional
T4 sequence (whole entry): T3 sequence (P08235 whole entry)

[3] = target: T5, Progesterone receptor (Homo sapiens) (UniProt P06401); assay: Agonist efficacy towards human progesterone receptor (hPR) using the cotransfection assay in CV-1 cells; assay type: functional, cell-based
T5 sequence (whole entry): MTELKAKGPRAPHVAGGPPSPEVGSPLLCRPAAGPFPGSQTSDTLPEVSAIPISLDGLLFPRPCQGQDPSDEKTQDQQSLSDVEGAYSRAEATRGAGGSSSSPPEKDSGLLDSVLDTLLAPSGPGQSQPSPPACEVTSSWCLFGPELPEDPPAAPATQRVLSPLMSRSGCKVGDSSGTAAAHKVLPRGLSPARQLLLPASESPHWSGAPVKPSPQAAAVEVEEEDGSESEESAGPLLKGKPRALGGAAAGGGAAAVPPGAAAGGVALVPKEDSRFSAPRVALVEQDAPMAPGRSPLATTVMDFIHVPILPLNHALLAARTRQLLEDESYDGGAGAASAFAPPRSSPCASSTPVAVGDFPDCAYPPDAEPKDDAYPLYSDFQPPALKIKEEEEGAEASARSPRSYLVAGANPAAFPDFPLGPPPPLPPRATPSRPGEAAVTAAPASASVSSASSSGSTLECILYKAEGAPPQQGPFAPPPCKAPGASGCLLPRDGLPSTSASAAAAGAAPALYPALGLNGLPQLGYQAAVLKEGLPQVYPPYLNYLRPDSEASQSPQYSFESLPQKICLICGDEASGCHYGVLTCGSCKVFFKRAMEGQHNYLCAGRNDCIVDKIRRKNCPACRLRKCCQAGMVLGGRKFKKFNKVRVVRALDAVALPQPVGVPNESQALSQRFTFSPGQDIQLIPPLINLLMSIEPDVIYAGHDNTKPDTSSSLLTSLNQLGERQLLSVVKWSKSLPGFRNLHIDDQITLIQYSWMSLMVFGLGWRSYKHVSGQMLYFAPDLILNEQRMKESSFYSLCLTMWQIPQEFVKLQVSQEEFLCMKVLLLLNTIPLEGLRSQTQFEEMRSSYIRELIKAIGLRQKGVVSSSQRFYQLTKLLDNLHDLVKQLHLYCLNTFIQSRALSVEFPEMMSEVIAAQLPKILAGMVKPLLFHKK

Progesterone receptor [4] = target: T6, Progesterone receptor (Homo sapiens, UniProt P06401); assay: Effective concentration for agonist activity towards human progesterone receptor (hPR) using the cotransfection assay in CV-1 cells; assay type: functional, cell-based
T6 sequence (P06401 whole entry): T5 sequence (whole entry)

[5] = target: T5, Progesterone receptor (Homo sapiens); assay: Antagonistic efficacy towards human progesterone receptor (hPR) using the cotransfection assay in CV-1 cells; Not active; assay type: functional, cell-based
Progesterone receptor [6] = target: T6, Progesterone receptor; assay: Inhibitory concentration for antagonistic activity towards human progesterone receptor (hPR) using the cotransfection assay in CV-1 cells; Not active; assay type: functional, cell-based
Progesterone receptor [7] = target: T6, Progesterone receptor; assay: Binding affinity to human progesterone receptor
[8] = target: T5, Progesterone receptor (Homo sapiens); assay: Antagonistic efficacy towards human progesterone receptor (hPR) using the cotransfection assay in CV-1 cells; assay type: functional, cell-based
Progesterone receptor [9] = target: T6, Progesterone receptor; assay: Inhibitory concentration for antagonistic activity towards human progesterone receptor (hPR) using the cotransfection assay in CV-1 cells; assay type: functional, cell-based
[10] = target: T5, Progesterone receptor (Homo sapiens); assay: Agonist efficacy towards human progesterone receptor (hPR) expressed in CV-1 cells; Not active; assay type: functional, cell-based
Progesterone receptor [11] = target: T6, Progesterone receptor; assay: Effective concentration for agonist activity towards human progesterone receptor (hPR) expressed in CV-1 cells; Not active; assay type: functional, cell-based
Progesterone receptor [12] = target: T6, Progesterone receptor; assay: Inhibition of antagonist binding to human progesterone receptor (hPR); Not active

Efficacy [3] [%]	EC50 (Progesterone receptor [4]) [nM]	Efficacy [5]	IC50 (Progesterone receptor [6])	Ki (Progesterone receptor [7]) [nM]	Efficacy [8] [%]	IC50 (Progesterone receptor [9]) [nM]	Efficacy [10]	EC50 (Progesterone receptor [11])	IC50 (Progesterone receptor [12])	SMILES	IC50 (Androgen receptor) [nM]	IC50 (Glucocorticoid receptor) [nM]	IC50 [1] [nM]	Efficacy [2] [%]
87	1000	inactive	Not Active	6.1	–	–	–	–	–	C=C1Oc2ccc(F)cc2-c2ccc3c(c21)C(C)=CC(C)(C)N3	–	–	–	–
70	2700	–	–	45	75	65	–	–	–	CC1=CC(C)(C)Nc2ccc3c(c21)/C(=C/C#N)Oc1ccc(F)cc1-3	–	–	–	–
–	–	–	–	> 100	97	243	inactive	Not Active	–	CC1=CC(C)(C)Nc2ccc3c(c21)/C(=C/C=O)Oc1ccc(F)cc1-3	–	–	–	–
28	48	–	–	> 100	70	800	–	–	–	CC1=CC(C)(C)Nc2ccc3c(c21)/C(=C/C1CCCCC1)Oc1ccc(F)cc1-3	–	–	–	–
90	28	inactive	–	3.1	–	–	–	–	Not Active	CCC/C=C1\Oc2ccc(F)cc2-c2ccc3c(c21)C(C)=CC(C)(C)N3	–	–	–	–
–	–	–	–	> 100	90	1930	inactive	Not Active	–	CC1=CC(C)(C)Nc2ccc3c(c21)C(=C(c1ccccc1)c1ccccc1)Oc1ccc(F)cc1-3	–	–	–	–
64	27	–	–	16.7	38	980	–	–	–	CC/C(C)=C1/Oc2ccc(F)cc2-c2ccc3c(c21)C(C)=CC(C)(C)N3	–	–	–	–
–	–	–	–	> 100	91	124	inactive	Not Active	–	CC(=O)/C=C1\Oc2ccc(F)cc2-c2ccc3c(c21)C(C)=CC(C)(C)N3	–	–	–	–
–	–	inactive	Not Active	–	–	–	–	–	–	CC1=CC(C)(C)Nc2ccc3c(c21)/C(=C/c1ccccc1C)Oc1ccccc1-3	–	–	–	–
122	29	inactive	Not Active	26	–	–	–	–	–	C=C(/C=C1\Oc2ccc(F)cc2-c2ccc3c(c21)C(C)=CC(C)(C)N3)C(C)C	–	–	–	–

SMILES	Efficacy [3] [%]	EC50 (Progesterone receptor [4]) [nM]	Efficacy [5]	IC50 (Progesterone receptor [6])	Ki (Progesterone receptor [7]) [nM]	Efficacy [8] [%]	IC50 (Progesterone receptor [9]) [nM]	Efficacy [10]	EC50 (Progesterone receptor [11])	IC50 (Progesterone receptor [12])	IC50 (Androgen receptor) [nM]	IC50 (Glucocorticoid receptor) [nM]	IC50 [1] [nM]	Efficacy [2] [%]
CC1=CC(C)(C)Nc2ccc3c(c21)C(=C1SCCCS1)Oc1ccc(F)cc1-3	151	2.1	inactive	Not Active	–	–	–	–	–	–	180	146	681	92
